Experimental findings from article PMC9529664 (Current Research in Food Science, 2022) are described below.

Residues, ends and D or L forms follow the SMILES beside them.

The target in this test is DPP-IV enzyme (Homo sapiens, UniProt P27487). Description: biochemical.
DPP-IV enzyme, sequence (P27487 whole entry, species assumed): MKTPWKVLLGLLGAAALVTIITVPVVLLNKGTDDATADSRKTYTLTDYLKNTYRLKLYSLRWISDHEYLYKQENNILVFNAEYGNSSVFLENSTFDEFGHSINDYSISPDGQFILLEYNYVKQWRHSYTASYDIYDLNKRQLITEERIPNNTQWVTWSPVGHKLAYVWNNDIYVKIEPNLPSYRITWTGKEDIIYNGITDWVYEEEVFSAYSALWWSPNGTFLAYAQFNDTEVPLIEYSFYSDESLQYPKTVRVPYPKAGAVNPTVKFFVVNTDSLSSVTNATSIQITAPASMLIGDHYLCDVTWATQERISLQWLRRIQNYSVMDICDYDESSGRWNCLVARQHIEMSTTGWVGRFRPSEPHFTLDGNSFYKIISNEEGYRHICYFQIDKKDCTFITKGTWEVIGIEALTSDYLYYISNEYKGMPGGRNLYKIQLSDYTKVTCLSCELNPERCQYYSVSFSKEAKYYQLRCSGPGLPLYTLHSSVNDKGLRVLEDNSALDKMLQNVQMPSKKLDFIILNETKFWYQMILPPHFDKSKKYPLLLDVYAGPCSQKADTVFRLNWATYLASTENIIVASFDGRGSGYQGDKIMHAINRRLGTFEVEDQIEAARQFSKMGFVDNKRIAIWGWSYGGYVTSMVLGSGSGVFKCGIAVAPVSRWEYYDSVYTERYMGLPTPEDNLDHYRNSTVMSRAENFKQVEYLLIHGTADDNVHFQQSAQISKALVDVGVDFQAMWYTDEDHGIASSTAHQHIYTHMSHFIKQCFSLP
`C[C@@H](O)[C@H](NC(=O)[C@H](CC(N)=O)NC(=O)CNC(=O)[C@H](Cc1ccccc1)NC(=O)[C@@H]1CCCN1)C(=O)N[C@@H](Cc1c[nH]cn1)C(=O)N[C@@H](CC(N)=O)C(=O)N[C@@H](CC(N)=O)C(=O)N[C@@H](Cc1ccccc1)C(=O)N[C@@H](CCCCN)C(=O)O` [D1] (H-PFGNTHNNFK-OH): inhibition was half-maximal at 8.51 mM (IC50).
For `CC(C)[C@H](NC(=O)[C@H](C)NC(=O)[C@H](CCC(=O)O)NC(=O)[C@H](C)NC(=O)[C@@H]1CCCN1C(=O)[C@@H](N)CCC(=O)O)C(=O)NCC(=O)N[C@@H](CC(=O)O)C(=O)N[C@@H](Cc1c[nH]c2ccccc12)C(=O)N[C@@H](CCCNC(=N)N)C(=O)O` [D37] (H-EPAEAVGDWR-OH), inhibition was half-maximal at 0.1 mM (IC50).
In turn, `CSCC[C@H](NC(=O)[C@H](Cc1c[nH]cn1)NC(=O)[C@H](CC(N)=O)NC(=O)[C@H](CC(N)=O)NC(=O)[C@H](Cc1c[nH]cn1)NC(=O)[C@H](CCCCN)NC(=O)[C@H](CO)NC(=O)[C@H](CC(C)C)NC(=O)[C@H](CC(=O)O)NC(=O)[C@@H]1CCCN1)C(=O)O` [D35] (H-PDLSKHNNHM-OH) had an IC50 of 3.88 mM.
With `CC[C@H](C)[C@H](N)C(=O)N1CCC[C@H]1C(=O)N[C@@H](Cc1c[nH]cn1)C(=O)N[C@@H](CCC(=O)O)C(=O)N[C@@H](CO)C(=O)N[C@H](C(=O)N[C@@H](CC(=O)O)C(=O)N[C@H](C(=O)N[C@H](C(=O)N[C@@H](CCCCN)C(=O)O)[C@@H](C)CC)C(C)C)C(C)C` [D22] (H-IPHESVDVIK-OH) the figure was 2.69 mM.
